Data on one substance can be found in patent US20220040319A1, “METHODS OF TREATING OCULAR CANCER USING ANTI-MET ANTIBODIES AND BISPECIFIC ANTIGEN BINDING MOLECULES THAT BIND MET” (Regeneron Pharmaceuticals, Inc., priority 2019, published 2022).

Assay [1] concerns MET pathway in NCI-H596 cells. In words: MET and ERK phosphorylation in NCI-H596 cells, immunoblot. It is filed as cell-based, human. As to conditions: fold change relative to control, HGF 50 ng/ml, antibody 10 μg/ml. Here is the method:
250,000 NCI-H596 cells were seeded in a 12 well plate and cultured in RPMI Media supplemented with 10% FBS. […] The cells were subsequently incubated in 5% CO2 at 37° C. After 0, 2, 6 or 18 hours, cell lysates were prepared, protein content was normalized and immunoblot analysis was performed. MET phosphorylation and ERK phosphorylation were quantified with the ImageJ image processing program (T. Collins, BioTechniques 43: S25-S30, 2007). Phosphorylation levels were normalized to the Tubulin loading control and are expressed as fold change relative to control treatment.
On the technique in general: A western blot detects proteins with antibodies after separation by electrophoresis.

Another assay has as its system NCI-H596 cells. The experiment in a line: NCI-H596 growth in soft agar, AlamarBlue, two weeks. As to conditions: antibody 5 μg/ml (combination 2.5 μg/ml each), HGF 100 ng/mL. In kind it is cell-based, human. The method, then: The effect of a MET×MET bispecific antibody on the growth of human non-small cell lung cancer (NSCLC) cells (NCI-H596) was assessed in vitro. 10,000 NCI-H596 lung adenosquamous carcinoma cells (Nair et al., J. Nat'l. Cancer Inst. 86(5): 378-383, 1994) were seeded in 96 well plates on a layer of 0.66% agar in media supplemented with 1% fetal bovine serum (FBS). The cells were cultured in RPMI 1640 media supplemented with 1% FBS with 0.3% agarose. […] The cells were subsequently incubated with 5% CO2 at 37° C. After two weeks, relative cell growth was determined by measuring the reduction of the indicator dye, ALAMAR BLUE® (Thermo Fischer Scientific, Waltham, Mass.), to its highly fluorescent form in a SPECTRAMAX® M3 plate reader (Molecular Devices, Sunnyvale, Calif.). Increasing fluorescence correlates with cell growth. Table 18 and FIG. 14 depict the relative NCI-H596 cell growth for each antibody treatment normalized to control (no treatment) NCI-H596 cell growth.

Regarding “HGF: hepatocyte growth factor, MET agonist ligand [reference compound]”, the “Phospho-ERK (mean ± SD)” value was found to be 16.7 ± 1.6 in assay [1] (2 hours), 12.4 ± 3.9 in assay [1] (6 hours) and 12.4 ± 0.9 in assay [1] (18 hours). Further, the “Phospho-MET (mean ± SD)” value in assay [1] (2 hours) is on record as 202.3 ± 38.7; in assay [1] (6 hours), 38.9 ± 4.9; in assay [1] (18 hours), 59.2 ± 24.4. Further, the “Relative Cell Growth (n = 3)” value in the assay with NCI-H596 cells was determined as 7.877.
